# Reference: patent US20260103465A1, “GLYCOGEN SYNTHASE KINASE 3 INHIBITORS AND USES THEREOF” (The Broad Institute, Inc., priority 2023, published 2026)
# Like-named read-outs stand apart in the source and are kept apart here.
# How the values were obtained:
# [1] = target: T1, GSK3a (GST-full length GSK3a) (Homo sapiens, UniProt P49840); test: GSK3a TR-FRET kinase inhibition assay; format: biochemical
# T1 construct: GST-full length GSK3a [SignalChem G08-10G]; purchased SignalChem G08-10G
# Procedure, shortened: (§1)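 IC50 derived from normalized 665/615 TR-FRET signal (Tb anti-pSer641 antibody, streptavidin-d2), read after EDTA stop. Reaction: 1 nM GST-full-length enzyme, 30 min compound pre-incubation, 100 min at ambient temperature in Tris pH 7.5 with 1% DMSO, 200 nM biotinylated primed glycogen synthase peptide, ATP 2 μM to 1 mM.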
# [2] = target: T2, GSK3b (GST-full length GSK3b) (Homo sapiens, UniProt P49841); test: GSK3b TR-FRET kinase inhibition assay; format: biochemical
# T2 construct: GST-full length GSK3b: [SignalChem G08-9G]; purchased SignalChem G08-9G
# T2 sequence (P49841 whole entry): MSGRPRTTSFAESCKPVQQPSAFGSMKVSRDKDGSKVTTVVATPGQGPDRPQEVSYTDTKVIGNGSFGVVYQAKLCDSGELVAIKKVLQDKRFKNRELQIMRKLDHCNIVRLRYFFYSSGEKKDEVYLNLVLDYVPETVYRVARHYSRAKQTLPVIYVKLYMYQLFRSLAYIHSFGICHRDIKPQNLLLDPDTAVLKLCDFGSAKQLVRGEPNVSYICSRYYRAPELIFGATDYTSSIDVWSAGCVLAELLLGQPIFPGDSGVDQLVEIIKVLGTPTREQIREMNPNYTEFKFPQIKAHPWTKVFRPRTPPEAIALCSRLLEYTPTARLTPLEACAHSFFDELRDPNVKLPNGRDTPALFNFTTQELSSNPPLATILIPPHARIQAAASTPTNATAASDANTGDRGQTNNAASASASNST
# Procedure, shortened: as §1
# [3] = Human liver microsomal stability; format: in vitro ADME; conditions: human liver microsomes
# Method: Stability of compound (5 μL of a 10 mM DMSO solution) in human liver microsomes was tested in duplicate by incubating compound at 1 μM for 60 minutes at 37° C. Compound level at 60 minutes was compared to level at 0 minutes, and percent remaining was calculated. Order by selecting Microsomal Stability in Prometheus, checking boxes for desired species. Assay Controls: microsomes with NADPH without compound-matrix interference. Microsomes plus compound without NADPH—non-enzymatic instability.
# [4] = system: MDR1-MDCK cell monolayers; test: MDR1/MDCK permeability assay; format: in vitro ADME; conditions: for MDCK Permeability (MDR1-MDCK); Mean; Papp(A-B) (10^−6 cm/s): A to B; for MDCK Permeability (MDR1-MDCK); Mean; Papp(B-A) (10^−6 cm/s): B to A; for MIDCK Permeability (MDR1-MDCK); Mean; P. Ratio(B-A/A-B) Efflux Ratio / MDCK Permeability (MDR1-MDCK); Mean; P. Ratio(B-A/A-B) Efflux Ratio: Papp B-A/A-B
# Description: The MDR1/MDCK assay is run at WuXi and Absorption Systems. This assay is used to determine the blood-brain barrier (BBB) penetration potential of a test compound using MDR1-MDCK cell monolayers. Catalog number EA203.
# • The percent recovery of the test compound from the Transwell® wells containing MDR1-MDCK cell monolayers • The apparent permeability (Papp) in both directions • The efflux ratio (Papp B to A)/(Papp A to B) • The blood-brain barrier penetration potential classification: • High when • Papp A to B≥3.0×10^−6 cm/s, and efflux<3.0 • Moderate when • Papp A to B≥3.0×10^−6 cm/s, and 10>efflux≥3.0 • Low when either • Papp A to B≥3.0×10^−6 cm/s, and […], or when • Papp A to B<[…].
# • Test compound at 5 μM in HBSSg with maximum DMSO concentration not greater than 1%.
# • Confluent monolayers of MDR1-MDCK cells, 7 to 11 days old.
# • Receiver well with 1% BSA in modified Hanks buffer (HBSSg) • Apical and basolateral side at pH 7.4 • Dose two monolayers in each direction (N=2) • Dose apical side for (A to B) assessment • Dose basolateral side for (B to A) assessment • Sample both apical and basolateral sides at 120 minutes • Determine the concentrations of test compound using a generic LC-MS/MS method with a minimum 4 point calibration curve.
# • The quality of the cell monolayer batch is verified using control compounds before monolayers are released for use • The quality of each monolayer used in the assay is verified by a TEER measurement and by calculating the Papp for a control compound.
# [5] = 1 mM ATP, Table 3, read-out: GSK3a TR-FRET 1 mM ATP Average IC50
# [6] = 1 mM ATP, Table 3, read-out: GSK3b TR-FRET 1 mM ATP Average IC50
# [7] = 4 μM ATP, read-out: GSK3α TR-FRET 4 μM ATP GMean IC50
# [8] = 1 mM ATP, Table 4, read-out: GSK3α TR-FRET 1 mM ATP GMean IC50
# [9] = 2 μM ATP, read-out: GSK3β TR-FRET 2 μM ATP GMean IC50
# [10] = 1 mM ATP, Table 4, read-out: GSK3β TR-FRET 1 mM ATP GMean IC50
# T1 sequence (P49840 whole entry): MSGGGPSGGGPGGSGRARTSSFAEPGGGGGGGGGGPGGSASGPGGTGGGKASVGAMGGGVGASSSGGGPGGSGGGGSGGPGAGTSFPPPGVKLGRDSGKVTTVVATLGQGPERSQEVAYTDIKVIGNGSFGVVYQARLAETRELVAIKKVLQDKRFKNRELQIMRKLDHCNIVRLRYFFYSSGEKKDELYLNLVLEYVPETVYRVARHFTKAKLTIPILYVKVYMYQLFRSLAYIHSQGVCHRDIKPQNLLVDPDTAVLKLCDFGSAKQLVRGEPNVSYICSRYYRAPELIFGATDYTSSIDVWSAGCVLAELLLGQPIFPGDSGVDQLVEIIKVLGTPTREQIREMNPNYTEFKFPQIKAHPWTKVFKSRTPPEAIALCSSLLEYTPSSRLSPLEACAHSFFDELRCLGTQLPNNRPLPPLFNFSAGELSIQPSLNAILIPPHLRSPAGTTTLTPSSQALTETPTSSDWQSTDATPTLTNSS
SMILES,"IC50 [1, 5]","IC50 [2, 6]",Microsome Stability (Human) (DMPK_BIIB); Mean; in vitro t1/2 ([3]; Table 3),MDCK Permeability (MDR1-MDCK); Mean; Papp(A-B) (10^−6 cm/s) ([4]; Table 3),MDCK Permeability (MDR1-MDCK); Mean; Papp(B-A) (10^−6 cm/s) ([4]; Table 3),MIDCK Permeability (MDR1-MDCK); Mean; P. Ratio(B-A/A-B) Efflux Ratio ([4]; Table 3),"IC50 [1, 7]","IC50 [1, 8]","IC50 [2, 9]","IC50 [2, 10]",Microsome Stability (Human) (DMPK_BIIB); Mean; in vitro t1/2 ([3]; Table 4),MDCK Permeability (MDR1-MDCK); Mean; Papp(A-B) (10^−6 cm/s) ([4]; Table 4),MDCK Permeability (MDR1-MDCK); Mean; Papp(B-A) (10^−6 cm/s) ([4]; Table 4),MDCK Permeability (MDR1-MDCK); Mean; P. Ratio(B-A/A-B) Efflux Ratio ([4]; Table 4)
"CC1(C)CC(=O)C2=C(C1)Nc1ncc(F)cc1C2(C)c1ccccc1 (single isomer, unassigned) [Compound 107B]",1000 to 5000 nM,1000 to 5000 nM,94 min,30 10^−6 cm/s,18 10^−6 cm/s,0.61,–,–,–,–,–,–,–,–
"CCC1(c2cccc(O)c2)C2=C(CC(C)(C)CC2=O)Nc2ncc(F)cc21 (single isomer, unassigned) [Compound 1010A]",–,–,–,–,–,–,> 5000 nM,–,> 5000 nM,–,6.1 min,0.60 10^−6 cm/s,28 10^−6 cm/s,51
"CCC1(c2cccc(-c3cc(C)nn3C)c2)C2=C(CC(C)(C)CC2=O)Nc2ncccc21 (single isomer, unassigned) [Compound 1024B]",–,–,–,–,–,–,≤ 100 nM,–,100 to 1000 nM,–,4.3 min,2.8 10^−6 cm/s,31 10^−6 cm/s,11
"CCC1(c2cccc(-c3ccccn3)c2)C2=C(CC(C)(C)CC2=O)Nc2ncccc21 (single isomer, unassigned) [Compound 1016A]",–,–,–,–,–,–,≤ 100 nM,–,≤ 100 nM,–,1.5 min,4.5 10^−6 cm/s,32 10^−6 cm/s,6.9
"CCC1(c2ccccc2)C2=C(CC(C)(C)CC2=O)Nc2ncccc21 (single isomer, unassigned) [102 B]",–,–,–,–,–,–,> 5000 nM,–,> 5000 nM,–,1.2 min,6.7 10^−6 cm/s,29 10^−6 cm/s,4.3
"CCC1(c2ccccc2)C2=C(CC3(CCC3)CC2=O)Nc2ncc(F)cc21 (single isomer, unassigned) [Compound 1008A]",–,–,–,–,–,–,≤ 100 nM,100 to 1000 nM,≤ 100 nM,1000 to 5000 nM,19 min,22 10^−6 cm/s,26 10^−6 cm/s,1.2
"CCC1(c2cccc(O)c2)C2=C(CC(C)(C)CC2=O)Nc2ncc(F)cc21 (single isomer, unassigned) [Compound 1010B]",–,–,–,–,–,–,≤ 100 nM,–,≤ 100 nM,–,11 min,0.80 10^−6 cm/s,39 10^−6 cm/s,48
"CCC1(c2cccc(-c3cn(C)nc3C)c2)C2=C(CC(C)(C)CC2=O)Nc2ncccc21 (single isomer, unassigned) [Compound 1023A]",–,–,–,–,–,–,≤ 100 nM,100 to 1000 nM,≤ 100 nM,1000 to 5000 nM,3.2 min,3.0 10^−6 cm/s,27 10^−6 cm/s,9.0
"CCC1(c2cccc(O)c2)C2=C(CC(C)(C)CC2=O)Nc2ncccc21 (single isomer, unassigned) [Compound 1004A]",–,–,–,–,–,–,≤ 100 nM,–,≤ 100 nM,–,7.7 min,1.2 10^−6 cm/s,42 10^−6 cm/s,37
"CCC1(c2cccc(-c3ccnn3C)c2)C2=C(CC(C)(C)CC2=O)Nc2ncc(F)cc21 (single isomer, unassigned) [Compound 1025A]",–,–,–,–,–,–,≤ 100 nM,–,≤ 100 nM,–,5.5 min,4.6 10^−6 cm/s,42 10^−6 cm/s,9.1
"CCC1(c2cccc(C(C)C)c2)C2=C(CC(C)(C)CC2=O)Nc2ncccc21 (single isomer, unassigned) [Compound 1011B]",–,–,–,–,–,–,≤ 100 nM,–,≤ 100 nM,–,3.8 min,15 10^−6 cm/s,28 10^−6 cm/s,1.9

# More lines, now with the values ahead:
"IC50 [1, 5]","IC50 [2, 6]",Microsome Stability (Human) (DMPK_BIIB); Mean; in vitro t1/2 ([3]; Table 3),MDCK Permeability (MDR1-MDCK); Mean; Papp(A-B) (10^−6 cm/s) ([4]; Table 3),MDCK Permeability (MDR1-MDCK); Mean; Papp(B-A) (10^−6 cm/s) ([4]; Table 3),MIDCK Permeability (MDR1-MDCK); Mean; P. Ratio(B-A/A-B) Efflux Ratio ([4]; Table 3),"IC50 [1, 7]","IC50 [1, 8]","IC50 [2, 9]","IC50 [2, 10]",Microsome Stability (Human) (DMPK_BIIB); Mean; in vitro t1/2 ([3]; Table 4),MDCK Permeability (MDR1-MDCK); Mean; Papp(A-B) (10^−6 cm/s) ([4]; Table 4),MDCK Permeability (MDR1-MDCK); Mean; Papp(B-A) (10^−6 cm/s) ([4]; Table 4),MDCK Permeability (MDR1-MDCK); Mean; P. Ratio(B-A/A-B) Efflux Ratio ([4]; Table 4),SMILES
–,–,–,–,–,–,≤ 100 nM,100 to 1000 nM,≤ 100 nM,1000 to 5000 nM,2.7 min,2.9 10^−6 cm/s,29 10^−6 cm/s,9.9,"CCC1(c2cccc(-c3c(C)nn(C)c3C)c2)C2=C(CC(C)(C)CC2=O)Nc2ncccc21 (single isomer, unassigned) [Compound 150B]"
1000 to 5000 nM,1000 to 5000 nM,>145 min,20 10^−6 cm/s,10 10^−6 cm/s,0.53,–,–,–,–,–,–,–,–,"CC1(C)CC(=O)C2=C(C1)Nc1ncc(C(F)(F)F)cc1C2(C)c1ccccc1 (single isomer, unassigned) [Compound 128B]"
1000 to 5000 nM,5000 to 20000 nM,–,–,–,–,–,–,–,–,5.4 min,22 10^−6 cm/s,31 10^−6 cm/s,1.4,"CCC1(c2ccccc2)C2=C(CC3(CCC3)CC2=O)Nc2ncccc21 (single isomer, unassigned) [Compound 110A]"
–,–,–,–,–,–,≤ 100 nM,100 to 1000 nM,≤ 100 nM,100 to 1000 nM,4.7 min,4.4 10^−6 cm/s,24 10^−6 cm/s,5.5,"CCC1(c2cccc(-c3ccnc4c3CCCC4)c2)C2=C(CC(C)(C)CC2=O)Nc2ncc(F)cc21 (single isomer, unassigned) [Compound 165B]"
–,–,6.4 min,15 10^−6 cm/s,9.5 10^−6 cm/s,0.62,> 5000 nM,–,> 5000 nM,–,–,–,–,–,"CCC1(c2cccc(-c3c(F)cncc3OC)c2)C2=C(CC(C)(C)CC2=O)Nc2ncccc21 (single isomer, unassigned) [Compound 154A]"
–,–,10 min,12 10^−6 cm/s,6.9 10^−6 cm/s,0.59,100 to 1000 nM,–,1000 to 5000 nM,–,–,–,–,–,"CCC1(c2cccc(-c3c(F)cncc3OC)c2)C2=C(CC(C)(C)CC2=O)Nc2ncc(F)cc21 (single isomer, unassigned) [Compound 161A]"
